# Measurements published in US10669289B2, “Boronic acid derivatives” (MERCK PATENT GMBH, priority 2014, dated 2020).
# How the values were obtained:
# [1] = biological target: human constitutive proteasome (Beta5) (Homo sapiens (Human), UniProt P28074); test: Determination of Beta5 activity (fluorescence intensity assay, Suc-LLVY-AMC); assay type: biochemical
# Outline: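 Purified human constitutive proteasome (1.25 nM) preincubated with compounds (30 μM–15 pM) for 20 min (default) or 120 min at 25 °C in 50 mM Tris pH 7.4, 0.03% SDS, 1 mM EDTA, 1% DMSO. Suc-LLVY-AMC substrate at 40 μM, 60 min at 37 °C. Fluorescence read at ex 350/em 450 nm.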
# [2] = biological target: human immuno proteasome (LMP7) (Homo sapiens (Human), UniProt P28062); test: Determination of LMP7 activity (fluorescence intensity assay, Suc-LLVY-AMC); assay type: biochemical
# Outline: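 Fluorogenic Suc-LLVY-AMC cleavage (40 μM substrate, 60 min, 37° C., ex 350/em 450 nm) measured after 0.25 nM human immunoproteasome was exposed to compound at 30 μM–15 pM. Preincubation was 20 min by default or 120 min (long) at 25° C., in Tris pH 7.4 with 0.03% SDS, 1 mM EDTA and 1% DMSO.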
# [3] = LMP7 versus Beta5, long incubation (120 min)
# [4] = LMP7 versus Beta5, incubation for 20 minutes
IC50 ([1]; long incubation (120 min)),"Selectivity LMP7 vs Beta5 [2, 3]",IC50 ([2]; long incubation (120 min)),IC50 ([1]; incubation for 20 minutes),"Selectivity LMP7 vs Beta5 [2, 4]",IC50 ([2]; incubation for 20 minutes),Compound
–,–,–,> 5000 nM,+++++ (Selectivity ≥ 150),< 50 nM,"C=CC(=O)N(C)CC(=O)N[C@@H](Cc1ccc(C)cc1C)B(O)O [Compound No. 33, [(1R)-2-(2,4-dimethylphenyl)-1-[[2-[methyl(prop-2-enoyl)amino]-acetyl]amino]ethyl]boronic Acid]"
500 to 5000 nM,+++++ (Selectivity ≥ 150),< 50 nM,–,–,–,"C=CC(=O)N(CC(=O)N[C@@H](Cc1ccsc1)B(O)O)c1ccc(CC)cc1 [Compound No. 96, [(1R)-1-[[2-(4-ethyl-N-prop-2-enoyl-anilino)acetyl]amino]-2-(3-thienyl)ethyl]boronic Acid]"
> 5000 nM,+++++ (Selectivity ≥ 150),< 50 nM,–,–,–,"CCN(CC(=O)N[C@@H](Cc1ccc(C)cc1C)B(O)O)C(=O)/C=C/C(=O)OC [Compound No. 50, [(1R)-2-(2,4-dimethylphenyl)-1-[[2-[ethyl-[(E)-4-methoxy-4-oxo-but-2-enoyl]amino]acetyl]amino]ethyl]boronic Acid]"

# Second part, the compound before the results:
Compound,IC50 ([1]; long incubation (120 min)),"Selectivity LMP7 vs Beta5 [2, 3]",IC50 ([2]; long incubation (120 min)),IC50 ([1]; incubation for 20 minutes),"Selectivity LMP7 vs Beta5 [2, 4]",IC50 ([2]; incubation for 20 minutes)
"C=CC(=O)N(CC)CC(=O)N[C@@H](Cc1ccc(C(F)(F)F)cc1C)B(O)O [Compound No. 64, [(1R)-1-[[2-[ethyl(prop-2-enoyl)amino]acetyl]amino]-2-[2-methyl-4-(trifluoromethyl)phenyl]ethyl]boronic Acid]",> 5000 nM,+++++ (Selectivity ≥ 150),50 to 500 nM,–,–,–
"C=CC(=O)N(CC(=O)N[C@@H](Cc1ccsc1)B(O)O)c1cccc(CC)c1 [Compound No. 94, [(1R)-1-[[2-(3-ethyl-N-prop-2-enoyl-anilino)acetyl]amino]-2-(3-thienyl)ethyl]boronic Acid]",> 5000 nM,+++++ (Selectivity ≥ 150),< 50 nM,–,–,–
"[(1R)-1-[[2-[but-2-ynoyl(propyl)amino]acetyl]amino]-2-(2,4-dimethylphenyl)ethyl]boronic Acid [Compound No. 3]",–,–,–,> 5000 nM,+++ (70 ≤ 100),50 to 500 nM
"C=CC(=O)N(CC)CC(=O)N[C@@H](Cc1ccc(Cl)cc1)B(O)O [Compound No. 25, [(1R)-2-(4-chlorophenyl)-1-[[2-[ethyl(prop-2-enoyl)amino]acetyl]-amino]ethyl]boronic Acid]",–,–,–,500 to 5000 nM,+ (Selectivity < 50),50 to 500 nM
"C=CC(=O)N(c1ccccc1)[C@H](C)C(=O)N[C@@H](Cc1ccc(C)cc1C)B(O)O [Compound No. 45, [(1R)-2-(2,4-dimethylphenyl)-1-[[(2R)-2-(N-prop-2-enoylanilino)propanoyl]amino]ethyl]boronic Acid]",> 5000 nM,+++++ (Selectivity ≥ 150),50 to 500 nM,–,–,–
